Reference: patent US6600069B2, “Benzene tricarboxylic acid derivatives as insulin receptor activators” (Telik, Inc., priority 2000, dated 2003)
Like-named read-outs stand apart in the source and are kept apart here.

What was measured:
[1] = target: T1, β-kinase domain of the human insulin receptor (CKD) (Homo sapiens, UniProt P06213); assay: 32P-cytoplasmic kinase domain (CKD) autophosphorylation assay; format: biochemical; details: 32P incorporated into CKD band, 10 minutes at room temperature, 50 μM ATP; test concentration not given
T1 construct: The complete β-kinase domain of the human insulin receptor (CKD); made in house
T1 sequence (P06213 980-1382 limits assumed): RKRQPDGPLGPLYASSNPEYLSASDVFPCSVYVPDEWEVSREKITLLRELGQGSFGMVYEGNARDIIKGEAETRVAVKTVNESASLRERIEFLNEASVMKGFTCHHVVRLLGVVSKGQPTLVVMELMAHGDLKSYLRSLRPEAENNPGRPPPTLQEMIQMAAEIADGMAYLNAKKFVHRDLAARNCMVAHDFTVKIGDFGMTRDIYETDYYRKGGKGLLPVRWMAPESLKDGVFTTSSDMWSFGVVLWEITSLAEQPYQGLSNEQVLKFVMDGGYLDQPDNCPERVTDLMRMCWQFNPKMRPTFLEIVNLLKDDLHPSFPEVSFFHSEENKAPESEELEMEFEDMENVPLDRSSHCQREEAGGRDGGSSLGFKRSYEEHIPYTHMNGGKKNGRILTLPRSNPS
Description: ^32P-cytoplasmic Kinase Domain (CKD) Autophosphorylation Assay
The complete β-kinase domain of the human insulin receptor (CKD) was expressed in, and purified from, baculovirus. CKD (4.0 μg/ml), in a solution of 29 mM HEPES (pH 7.6), 0.05% Triton X-100, 10 mM MgCl2, 2 mM MnCl2 (50 μl final volume), was combined with 50 μM ATP, and 5 μCi ^32P-ATP (3000 Ci/mmol.). A test compound, or the vehicle (DMSO), was added to a final DMSO concentration of 1%. The mixture was incubated for 10 minutes at room temperature. The reaction was terminated by the addition of 10 μl of 200 mM EDTA. A 30 μl volume was removed, mixed with 5 μl of 6× Laemmeli sodium dodecyl sulfate (SDS) treatment buffer, and heated to 95° C. for 5 minutes. A 20 μl aliquot was then run on an SDS-PAGE gel. The radioactivity incorporated into the CKD band is quantified by phosphorimaging of the gel, or scintillation counting of the excised bands.
The potency of a compound for increasing phosphorylation is expressed as a percentage of the vehicle level.

[2] = tested on: 3T3 L1 fibroblasts differentiated to adipocytes; assay: Glucose transport activity (14C-2-deoxy-D-glucose uptake); format: cell-based
Description: Glucose Transport Activity
3T3 L1 fibroblasts (ATCC) were grown in Dulbecco's modified Eagie's medium (DMEM) with 10% fetal bovine serum (FBS). The cells were plated at a density of 3×10^4 cells/well in 24-well plates. Two days after confluence was reached, the cells were treated for 3 days with […] isobutylmethylxanthine (IBMX), 1 μM dexamethasone, and 1.7 μM insulin. The cells were then transferred to DMEM with 10% fresh bovine serum with 1.7 μM insulin for 2 more days. The cells were maintained in DMEM with 10% FBS for an additional 4 days. Finally the cells were serum starved overnight in 0.1% bovine serum albumin (BSA) in DMEM prior to exposure to the test compounds.
The following day, the medium was replaced with 150 mM NaCl, 1.7 mM KCl, 0.9 mM CaCl2, K2HPO4 (pH 7.4) to which was added either the experimental compounds, or their vehicle (DMSO). Insulin or its vehicle (0.01% BSA) was diluted in the assay buffer (containing test compound or vehicle, respectively) to a final concentration of 5.6 nM. After incubation for 30 min at 37° C., 0.5 μCi/ml of ^14C-2-deoxy-D-glucose was added, and the incubation was continued for additional 30 min at 37° C. The cells were then washed 3 times with ice-cold PBS/20 mM glucose and lysed in 250 μl of lysis buffer (50 mM HEPES pH 7.6, 1% Triton X-100) for 30 min at room temperature. Radioactivity in the lysate was quantified by scintillation counting.
Once ^14C-2-deoxy-D-glucose is transported into the cell it is not released. Glucose transport is, therefore, proportional to the amount of radioactivity in the lysate. The concentration of compound necessary to produce an increase in glucose transport greater than the sum of the standard deviation of the vehicle control plus the largest standard deviation of a test sample (generally 150% of the vehicle control) was recorded as the EC (effective concentration) The results of the glucose transport activity assay are shown in Table 2,

[3] = concentration producing increase in glucose transport generally 150% of the vehicle control, insulin 5.6 nM, read-out: Glucose Transport EC (effective concentration)
[4] = Mus musculus, 3T3-L1, concentration producing increase in glucose transport generally 150% of the vehicle control, insulin 5.6 nM, read-out: Glucose Transport EC (effective concentration)
[5] = Mus musculus, 3T3-L1, no EC recorded, not tested above 3.2 μM, insulin 5.6 nM, read-out: Glucose Transport EC (effective concentration), cells printed NT

CKD phosphorylation (percentage of the vehicle level) [1] | Compound | EC50 [2, 3] | EC50 [2, 4] | further results
103.7% | O=C(O)c1ccc(NC(=O)c2cc(C(=O)Nc3ccc(C(=O)O)cc3)cc(C(=O)Nc3ccc(C(=O)O)cc3)c2)cc1 [Compound 1, 4-({3,5-bis[N-(4-carboxyphenyl)carbamoyl]phenyl}carbonylamino)benzoic acid] |  | 3.2 µM | 
136.8% | O=C(Nc1cccc2cc(S(=O)(=O)O)ccc12)c1cc(C(=O)Nc2cccc3cc(S(=O)(=O)O)ccc23)cc(C(=O)Nc2cccc3cc(S(=O)(=O)O)ccc23)c1 [Compound 2, 5-({3,5-bis[N-(6-sulfonaphthyl)carbamoyl]phenyl}carbonylamino)naphthalene-2-sulfonic acid] | 3.2 µM |  | 
98.9% | O=C(Nc1ccc(S(=O)(=O)O)cc1)c1cc(C(=O)Nc2ccc(S(=O)(=O)O)cc2)cc(C(=O)Nc2ccc(S(=O)(=O)O)cc2)c1 [Compound 3, 4-({3,5-bis[N-(4-sulfophenyl)carbamoyl]phenyl}carbonylamino)benzenesulfonic acid] |  | 3.2 µM | 
122.7% | O=C(Nc1cccc2c(S(=O)(=O)O)cccc12)c1cc(C(=O)Nc2cccc3c(S(=O)(=O)O)cccc23)cc(C(=O)Nc2cccc3c(S(=O)(=O)O)cccc23)c1 [Compound 6, 5-({3,5-bis[N-(5-sulfonaphthyl)carbamoyl]phenyl}carbonylamino)naphthalene-sulfonic acid] | 3.2 µM |  | 
114.1% | O=C(Nc1ccc(S(=O)(=O)O)c2ccccc12)c1cc(C(=O)Nc2ccc(S(=O)(=O)O)c3ccccc23)cc(C(=O)Nc2ccc(S(=O)(=O)O)c3ccccc23)c1 [Compound 7, 4-({3,5-bis[N-(4-sulfonaphthyl)carbamoyl]pheny}carbonylamino)naphthalene-sulfonic acid] | 3.2 µM |  | 
113.2% | O=C(Nc1ccccc1S(=O)(=O)O)c1cc(C(=O)Nc2ccccc2S(=O)(=O)O)cc(C(=O)Nc2ccccc2S(=O)(=O)O)c1 [Compound 8, 2-({3,5-bis[N-(2-sulfophenyl)carbamoyl]phenyl}carbonylamino)benzenesulfonic acid] |  | 3.2 µM | 
98.8% | O=C(Nc1ccc2ccccc2c1S(=O)(=O)O)c1cc(C(=O)Nc2ccc3ccccc3c2S(=O)(=O)O)cc(C(=O)Nc2ccc3ccccc3c2S(=O)(=O)O)c1 [Compound 9, 2-({3,5-bis[N-(1-sulfo(2-naphthyl))carbamoyl]phenyl}carbonylamino)naphthalene-sulfonic acid] |  |  | EC50 ([2]; no EC recorded, not tested above 3.2 μM, insulin 5.6 nM, read-out: Glucose Transport EC (effective concentration), cells printed NT): > 3.2 µM
92.0% | O=C(Nc1cccc(S(=O)(=O)O)c1)c1cc(C(=O)Nc2cccc(S(=O)(=O)O)c2)cc(C(=O)Nc2cccc(S(=O)(=O)O)c2)c1 [Compound 10, 3-({3,5-bis[N-(3-sulfophenyl)carbamoyl]phenyl}carbonylamino)benzenesulfonic acid] |  | 3.2 µM | 
148.2% | O=C(Nc1ccc2cc(S(=O)(=O)O)ccc2c1)c1cc(C(=O)Nc2ccc3cc(S(=O)(=O)O)ccc3c2)cc(C(=O)Nc2ccc3cc(S(=O)(=O)O)ccc3c2)c1 [Compound 11, 6-({3,5-bis[N-(6-sulfo(2-naphthyl))carbamoyl]phenyl}carbonylamino)naphthalene-2-sulfonic acid] |  |  | EC50 [2, 5]: > 3.2 µM
136.6% | O=C(Nc1ccc2c(S(=O)(=O)O)cccc2c1)c1cc(C(=O)Nc2ccc3c(S(=O)(=O)O)cccc3c2)cc(C(=O)Nc2ccc3c(S(=O)(=O)O)cccc3c2)c1 [Compound 12, 6-({3,5-bis[N-(5-sulfo(2-naphthyl))carbamoyl]phenyl}carbonylamino)naphthalene-sulfonic acid] | 3.2 µM |  | 
125.5% | O=C(Nc1ccc2ccc(S(=O)(=O)O)cc2c1)c1cc(C(=O)Nc2ccc3ccc(S(=O)(=O)O)cc3c2)cc(C(=O)Nc2ccc3ccc(S(=O)(=O)O)cc3c2)c1 [Compound 13, 7-({3,5-bis[N-(7-sulfo(2-naphthyl))carbamoyl]phenyl}carbonylamino)naphthalene-2-sulfonic acid] |  |  | EC50 [2, 5]: > 3.2 µM
105.3% | O=C(Nc1ccccc1C(=O)O)c1cc(C(=O)Nc2ccccc2C(=O)O)cc(C(=O)Nc2ccccc2C(=O)O)c1 [Compound 14, 2-({3,5-bis[N-(2-carboxyphenyl)carbamoyl]phenyl}carbonylamino)benzoic acid] |  |  | EC50 [2, 5]: > 3.2 µM
156.0% | O=C(Nc1cccc2cccc(S(=O)(=O)O)c12)c1cc(C(=O)Nc2cccc3cccc(S(=O)(=O)O)c23)cc(C(=O)Nc2cccc3cccc(S(=O)(=O)O)c23)c1 [Compound 15, 8-({3,5-bis[N-(8-sulfonaphthyl)carbamoyl]phenyl}carbonylamino)naphthalene-sulfonic acid] | 3.2 µM |  | 
83.7% | COC(=O)c1cc(NC(=O)c2cc(C(=O)Nc3cc(C(=O)OC)cc(C(=O)OC)c3)cc(C(=O)Nc3cc(C(=O)OC)cc(C(=O)OC)c3)c2)cc(C(=O)OC)c1 [Compound 16, methyl 3-[(3,5-bis{N-[3,5-bis(methoxycarbonyl)phenyl]carbamoyl}phenyl)-carbonylamino]-5-(methoxycarbonyl)benzoate] |  | 1.6 µM | 
90.4% | O=C(O)c1ccc(CNC(=O)c2cc(C(=O)NCc3ccc(C(=O)O)cc3)cc(C(=O)NCc3ccc(C(=O)O)cc3)c2)cc1 [Compound 17, 4-{[(3,5-bis{N-[(4-carboxyphenyl)methyl]carbamoyl}phenyl)carbonylamino]-methyl}benzoic acid] |  | 3.2 µM | 
94.54% | COC(=O)c1cccc(NC(=O)c2cc(C(=O)Nc3cccc(C(=O)OC)c3)cc(C(=O)Nc3cccc(C(=O)OC)c3)c2)c1 [Compound 18, methyl 3-[(3,5-bis{N-[3-(methoxycarbonyl)phenyl]carbamoyl}phenyl)carbonyl-amino]benzoate] |  | 3.2 µM | 
104.0% | COC(=O)c1ccc(CNC(=O)c2cc(C(=O)NCc3ccc(C(=O)OC)cc3)cc(C(=O)NCc3ccc(C(=O)OC)cc3)c2)cc1 [Compound 19, methyl 4-({[3,5-bis(N-{[4-(methoxycarbonyl)phenyl]methyl}carbamoyl)phenyl]-carbonylamino}methyl)benzoate] |  |  | EC50 [2, 5]: > 3.2 µM
77.4% | COC(=O)c1ccc(NC(=O)c2cc(C(=O)Nc3ccc(C(=O)OC)cc3)cc(C(=O)Nc3ccc(C(=O)OC)cc3)c2)cc1 [Compound 20, methyl 4-[(3,5-bis{N-[4-(methoxycarbonyl)phenyl]carbamoyl}phenyl)carbonyl-amino]benzoate] |  | 3.2 µM | 

Compound | CKD phosphorylation (percentage of the vehicle level) [1] | EC50 [2, 3] | EC50 [2, 4] | further results
3,5-bis[N-(6-sulfonaphthyl)carbamoyl] benzoic acid [Compound 5] | 115.6% | 10 µM |  | 
O=C(Nc1cccc2ccc(S(=O)(=O)[O-])cc12)c1cc(C(=O)Nc2cccc3ccc(S(=O)(=O)[O-])cc23)cc(C(=O)Nc2cccc3ccc(S(=O)(=O)[O-])cc23)c1.[Na+].[Na+].[Na+] [Compound 4, 8-({3,5-bis[N-(7-sulfonaphthyl)carbamoyl]phenyl}carbonylamino)naphthalene-2-sulfonic acid] | 134.9% |  |  | EC50 ([2]; Mus musculus, 3T3-L1, read-out: Glucose Transport EC (effective concentration)): 3.2 µM
